Earlier results as cited in patent US12403291B2, “Submucosal bioresorbable drug eluting platform” (Intersect ENT, Inc., priority 2019, dated 2025).

Conditions: MF per gram of tissue

Compound: C[C@@H]1C[C@H]2[C@@H]3CCC4=CC(=O)C=C[C@]4(C)[C@@]3(Cl)[C@@H](O)C[C@]2(C)[C@@]1(OC(=O)c1ccco1)C(=O)CCl [Mometasone furoate, mometasone furoate]
- concentration level of therapeutic effectiveness: 0.1 µg/g
